Measured values: US4760201A (Exxon Research & Engineering Co., priority 1986, dated 1988)
Several values for one entry are separate records, joined by “and”; a condition that tells them apart may be missing. Equal values may be shown once. Read-outs that look alike come from different tables or passages of the source.

What was measured:
[1] = Effect of solvent/feed ratio on selectivity of extraction (H2O/SBA in upper layer); settings: 25° C., AS 56.7%, ES 0.5
Protocol: In a series of runs, separate portions of the acid/alcohol feedstreams were contacted with the indicated amount of octanoic acid for extraction of sec-butyl alcohol (SBA) therefrom using the indicated contacting temperatures, employing a 60 ml. separatory funnel, with agitation, and employing 3 hours of setting time. The weight percent sec-butyl alcohol in the light phase (i.e., the upper layer comprising the octanoic acid layer) was then analyzed.

[2] = Batch extraction of sec-butyl alcohol (SBA) from acid/alcohol feedstream by aliphatic acids; SBA in light phase; format: physicochemical; settings: ES 0.5, AS 56.7%
Text: Thereafter, the thus-formed acid/alcohol […] contacted with the selected amount of a carboxylic acid solvent of this invention, and the results thereby obtained are reported in the associated tables below.

[3] = Method: The liquids thus passed to the extraction unit were preheated each to a temperature of 60° C. The reciprocating plate column was provided with a hot water heating jacket maintained at 60° C. […] The liquids thereby accumulated were each analyzed by gas chromatography and nuclear magnetic resonance spectroscopy (NMR) for component identification.
[4] = Partitioning of alcohol into neodecanoic acid from sulfuric acid/alcohol feedstreams (Examples 14-21); settings: AS 60%, 60° C.
[5] = Comparative runs: partitioning of SBOH and water into neodecanoic acid from aqueous sec-butanol free of sulfuric acid

CCCCCCCC(=O)O [octanoic acid]
selectivity of extraction [1]: increasing amounts of water being removed | wt:wt. ratio H2O/SBA In Upper Layer ([1]; solvent/feed 0.2 (v/v)): 0.066 wt:wt and 0.079 wt:wt | wt:wt. ratio H2O/SBA In Upper Layer ([1]; solvent/feed 0.4 (v/v)): 0.055 wt:wt | wt:wt. ratio H2O/SBA In Upper Layer ([1]; solvent/feed 1.0 (v/v)): 0.067 wt:wt | wt:wt. ratio H2O/SBA In Upper Layer ([1]; solvent/feed 2.0 (v/v)): 0.101 wt:wt | SBA in Light Phase ([2]; Run 8-1, 60 °C, v:v solvent:feed 1.0): 9.91 wt. % | SBA in Light Phase ([2]; Run 8-2, 60 °C, v:v solvent:feed 2.0): 7.20 wt. % | SBA in Light Phase ([2]; Run 8-3, 25 °C, v:v solvent:feed 0.2): 7.38 wt. % | SBA in Light Phase ([2]; Run 8-4, 25 °C, v:v solvent:feed 0.4): 7.57 wt. % | SBA in Light Phase ([2]; Run 8-5, 25 °C, v:v solvent:feed 1.0): 6.15 wt. % | SBA in Light Phase ([2]; Run 8-6, 25 °C, v:v solvent:feed 1.5): 5.37 wt. % | SBA in Light Phase ([2]; Run 8-7, 25 °C, v:v solvent:feed 2.0): 4.54 wt. % | SBA in Light Phase ([2]; Table 9, 25 °C, vol:vol 1.0:1): 6.15 wt. % | SBA in Light Phase ([2]; Table 9, 60 °C, vol:vol 1.0:1): 9.91 wt. %

CC(C)(C)CCC(=O)O [neoheptanoic acid]
selectivity of extraction [1]: high selectivity for alcohol extraction | wt:wt. ratio H2O/SBA In Upper Layer ([1]; solvent/feed 0.4 (v/v)): 0.099 wt:wt | wt:wt. ratio H2O/SBA In Upper Layer ([1]; solvent/feed 1.0 (v/v)): 0.054 wt:wt | wt:wt. ratio H2O/SBA In Upper Layer ([1]; solvent/feed 1.5 (v/v)): 0.045 wt:wt | wt:wt. ratio H2O/SBA In Upper Layer ([1]; solvent/feed 2.0 (v/v)): 0.067 wt:wt | SBA in Light Phase ([2]; Table 9, 25 °C, vol:vol 1.0:1): 5.04 wt. % | SBA in Light Phase ([2]; Table 9, 60 °C, vol:vol 1.0:1): 7.82 wt. %

CCC(C)OC(C)CC (stereo not drawn) [SBE, secondary butyl ether]
Overall Partition Coefficients, Wt. Fract. (concentration in light phase / in heavy phase) [3]: 81.2

O [Water, water]
Overall Partition Coefficients, Wt. Fract. (concentration in light phase / in heavy phase) [3]: 0.012

CCC(C)O (stereo not drawn) [SBOH, sec-butyl alcohol]
Overall Partition Coefficients, Wt. Fract. (concentration in light phase / in heavy phase) ([3]; Table 1, residence time 3.52 hours, solvent-to-feed 2.04:1, E.S. 1, A.S. 55%, 60° C.): 1.26 | Overall Partition Coefficients, Wt. Fract. (concentration in light phase / in heavy phase) ([3]; Table 2, residence time 3.62, solvent-to-feed 2.098:1, E.S. 1, A.S. 55%, 60° C.): 0.83 | Overall Partition Coefficients, Wt. Fract. (concentration in light phase / in heavy phase) ([3]; Table 3, residence time 3.66 hours, solvent-to-feed 2.043:1, E.S. 1, A.S. 55%, 60° C.): 1.15 | Overall Partition Coefficients, Wt. Fract. (concentration in light phase / in heavy phase) ([3]; Table 4, residence time 3.66 hrs, solvent-to-feed 2.11:1, solvent feed temp. 30° C., E.S. 1, A.S. 55%, 60° C.): 4.51 | Overall Partition Coefficients, Wt. Fract. (concentration in light phase / in heavy phase) ([3]; Table 5, residence time 3.37 hrs, solvent-to-feed 1.23:1, E.S. 1, A.S. 55%, 60° C.): .627 | Overall Partition Coefficients, Wt. Fract. (concentration in light phase / in heavy phase) ([3]; Table 6, residence time 3.60 hrs, solvent-to-feed 2.06:1, E.S. 1, A.S. 60%, 60° C.): 0.340 | Overall Partition Coefficients, Wt. Fract. (concentration in light phase / in heavy phase) ([3]; Table 7, residence time 3.77 hrs, solvent-to-feed 1.38:1, E.S. 1, A.S. 60 wt. %, 60° C.): 0.267 | Overall Partition Coeff. SBOH ([4]; Example 14, ES 0.2, NDA/SBOH 15.6): 0.3 | Overall Partition Coeff. SBOH ([4]; Example 15, ES 0.2, NDA/SBOH 3.9): 0.35 | Overall Partition Coeff. SBOH ([4]; Example 16, ES 0.2, NDA/SBOH 7.9): 0.33 | Overall Partition Coeff. SBOH ([4]; Example 17, ES 0.2, NDA/SBOH 23.2): 0.31 | Overall Partition Coeff. SBOH ([4]; Example 18, ES 0.2, NDA/SBOH 4.7): 1.35 | Overall Partition Coeff. SBOH ([4]; Example 19, ES 1.0, NDA/SBOH 1.3): 0.25 | Overall Partition Coeff. SBOH ([4]; Example 20, ES 1.0, NDA/SBOH 2.6): 0.24 | Overall Partition Coeff. SBOH ([4]; Example 21, ES 1.0, NDA/SBOH 7.9): 0.34 | Overall Partition Coeff. SBOH ([5]; Comparative Example I, 25° C., start SBOH 47.8 wt %): 4.1 | Overall Partition Coeff. SBOH ([5]; Comparative Example II, 25° C., start SBOH 7.3 wt %): 2.2 | Overall Partition Coeff. SBOH ([5]; Comparative Example III, 25° C., start SBOH 63.9 wt %): 4.0 | Overall Partition Coeff. SBOH ([5]; Comparative Example IV, 25° C., start SBOH 13.9 wt %): 2.2 | Overall Partition Coeff. SBOH ([5]; Comparative Example IX, 60° C., start SBOH 28.3 wt %): 6.0 | Overall Partition Coeff. SBOH ([5]; Comparative Example V, 60° C., start SBOH 45.3 wt %): 6.0 | Overall Partition Coeff. SBOH ([5]; Comparative Example VI, 60° C., start SBOH 7.4 wt %): 4.4 | Overall Partition Coeff. SBOH ([5]; Comparative Example VII, 60° C., start SBOH 61.7 wt %): 6.4 | Overall Partition Coeff. SBOH ([5]; Comparative Example VIII, 60° C., start SBOH 13.5 wt %): 4.5

butene
Overall Partition Coefficients, Wt. Fract. (concentration in light phase / in heavy phase) [3]: > 2000
